Laboratory results reported in publication PMC2652245 (Cancer research, 2008).

Tests used:
ABCB1 (P-glycoprotein) = ABCB1 (P-glycoprotein) (Homo sapiens, UniProt P08183); assay: competition of […]-IAAP photoaffinity labeling in membrane vesicles; format: binding
ABCG2 = molecular target: T1, ABCG2 (Homo sapiens, UniProt Q9UNQ0)
T1 sequence (Q9UNQ0 1-655): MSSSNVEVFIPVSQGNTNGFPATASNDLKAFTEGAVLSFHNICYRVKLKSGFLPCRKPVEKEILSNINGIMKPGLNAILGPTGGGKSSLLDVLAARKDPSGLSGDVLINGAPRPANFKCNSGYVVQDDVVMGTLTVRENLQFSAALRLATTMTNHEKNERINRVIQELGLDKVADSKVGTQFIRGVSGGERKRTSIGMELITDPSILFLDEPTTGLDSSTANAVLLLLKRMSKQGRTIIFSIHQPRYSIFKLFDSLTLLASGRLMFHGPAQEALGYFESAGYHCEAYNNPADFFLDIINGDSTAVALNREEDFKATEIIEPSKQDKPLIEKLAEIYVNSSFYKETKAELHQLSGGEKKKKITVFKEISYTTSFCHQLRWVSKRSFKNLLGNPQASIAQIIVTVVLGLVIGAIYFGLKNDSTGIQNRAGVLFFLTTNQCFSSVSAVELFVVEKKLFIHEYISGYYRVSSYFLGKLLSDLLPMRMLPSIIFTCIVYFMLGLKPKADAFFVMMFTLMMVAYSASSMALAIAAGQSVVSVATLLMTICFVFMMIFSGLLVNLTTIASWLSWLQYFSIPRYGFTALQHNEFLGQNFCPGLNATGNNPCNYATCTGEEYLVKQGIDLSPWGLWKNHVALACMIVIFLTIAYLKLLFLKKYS

ABCB1 (P-glycoprotein), sequence (P08183 whole entry): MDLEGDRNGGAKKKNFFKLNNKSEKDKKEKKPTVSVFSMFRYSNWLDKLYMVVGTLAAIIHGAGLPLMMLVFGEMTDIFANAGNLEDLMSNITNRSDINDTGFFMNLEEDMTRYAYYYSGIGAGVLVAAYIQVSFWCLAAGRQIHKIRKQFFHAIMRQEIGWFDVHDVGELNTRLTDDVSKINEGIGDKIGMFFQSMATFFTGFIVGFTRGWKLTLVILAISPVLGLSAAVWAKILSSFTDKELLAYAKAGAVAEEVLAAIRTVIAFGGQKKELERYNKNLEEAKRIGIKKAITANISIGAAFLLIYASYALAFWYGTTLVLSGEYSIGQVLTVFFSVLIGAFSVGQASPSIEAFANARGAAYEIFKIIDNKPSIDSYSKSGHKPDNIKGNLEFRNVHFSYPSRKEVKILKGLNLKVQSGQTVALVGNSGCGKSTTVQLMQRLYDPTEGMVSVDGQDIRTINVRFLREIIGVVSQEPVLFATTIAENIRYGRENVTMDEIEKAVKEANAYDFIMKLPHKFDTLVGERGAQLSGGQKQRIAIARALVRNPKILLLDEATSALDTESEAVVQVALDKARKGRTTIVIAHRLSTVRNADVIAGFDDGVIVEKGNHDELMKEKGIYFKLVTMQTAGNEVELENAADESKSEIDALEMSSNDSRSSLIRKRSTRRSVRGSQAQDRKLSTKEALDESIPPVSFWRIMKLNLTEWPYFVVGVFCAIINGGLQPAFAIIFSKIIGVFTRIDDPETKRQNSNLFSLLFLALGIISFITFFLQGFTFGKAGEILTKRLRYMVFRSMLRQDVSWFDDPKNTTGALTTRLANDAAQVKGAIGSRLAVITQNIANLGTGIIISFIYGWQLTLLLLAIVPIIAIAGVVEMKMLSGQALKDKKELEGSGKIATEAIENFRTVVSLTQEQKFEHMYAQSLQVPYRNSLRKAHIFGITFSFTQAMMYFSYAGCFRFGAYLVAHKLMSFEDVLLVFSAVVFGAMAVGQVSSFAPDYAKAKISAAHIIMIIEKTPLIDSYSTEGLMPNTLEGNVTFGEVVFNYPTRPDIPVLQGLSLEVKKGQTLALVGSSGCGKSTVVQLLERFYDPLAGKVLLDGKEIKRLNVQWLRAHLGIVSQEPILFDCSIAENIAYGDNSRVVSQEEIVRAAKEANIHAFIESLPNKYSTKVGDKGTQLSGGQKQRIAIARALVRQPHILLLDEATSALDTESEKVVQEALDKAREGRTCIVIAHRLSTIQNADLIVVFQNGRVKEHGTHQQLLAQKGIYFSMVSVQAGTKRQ

IC50 (ABCB1 (P-glycoprotein)) | Structure (SMILES) | inhibition of [3H]-methotrexate uptake in membrane vesicles (ABCG2)
2800 ± 600 nM | CS(=O)(=O)CCNCc1ccc(-c2ccc3ncnc(Nc4ccc(OCc5cccc(F)c5)c(Cl)c4)c3c2)o1 [lapatinib, N-{3-chloro-4-[(3-fluorobenzyl)oxy]phenyl}-6-[5-({[2-(methylsulfonyl)ethyl]amino}methyl)-2-furyl]-4-quinazolinamine] | –
– | C#Cc1cccc(Nc2ncnc3cc(OCCOC)c(OCCOC)cc23)c1 [erlotinib] | inhibitory effect of lapatinib on methotrexate transport by ABCG2 membrane vesicles is comparable to that of erlotinib and FTC
